Peptide text beside a SMILES is read from it.
Experiments:
[1] = system: leukocytic pyrogen-induced fever; test: in vivo rabbit pyresis assay (leukocytic pyrogen-induced fever); parameters: species or system New Zealand white rabbits; settings: for decrease in fever, percent reduction of the area under the control fever curve: intraventricular (central), 30 min after pyrogen, over 1.5 hours; for fever reduction: 1.5 hour period after injection of leukocytic pyrogen
Description: Leukocytic pyrogen is a molecule capable of producing transient fever in mammals which is produced by incubating rabbit leukocytes with Salmonella typhosa endotoxin. More specifically, to produce leukocytic pyrogen, donor rabbits were first sacrificed by decapitation. Blood was collected in a heparinized pryrogen-free beaker. Heparinized 50-ml glass centrifuge tubes were filled 3/4 full with whole blood, saline was added to fill each tube, and the solution was gently mixed. The tubes were then centrifuged at low speed for 20 min. The buffy coat was drawn off and placed in pyrogen-free flasks. Lactate Ringer's solution equal in volume to one-half that of the red cell layer, was added along with Salmonella typhosa endotoxin (Difco, No. 0901) also in Ringer's solution (1 ug/ml), to the buffy coat. The mixture was incubated at 38~C in a shaking water bath for 4 hours. The solution was centrifuged, filtered (Nalgene, 0.20 microns), and the leukocytic pyrogen-containing filtrate was stored at 4~C. Samples of leukocytic pyrogen were heated to 70~C for 2 hours and injected intravenously to test for endotoxin contamination.
Injections were 50 ul in volume and were followed by a 20 ul saline flush. Intravenous injections were made via the marginal ear vein. Intravenous leukocytic pyrogen injections were 0.07 ml of a stock solution made up of a mixture of leukocytic pyrogen derived from 4 donors. When injected, leukocytic pyrogen stock solution was diluted with nonpyrgenic isotonic saline. Injections were made with commercial nonpyrogenic syringes. Glassware was washed with chromic acid, rinsed with deionized water and heated to 200~C for a minimum of 2 hours to insure that it was pyrogen free.
Adult New Zealand white rabbits were used for the development of an antipyretic assay. The rabbits were housed individually in a 21-23~Cenvironment with a 12 hour light/dark cycle; food and water were available ad libitum. […]. Rabbits were placed in a Kopf rabbit stereotaxic instrument and a stainless steel cannula (No. 201, David Kopf Instruments)was inserted into a lateral ventricle at a point 1.0 mm anterior to the bregma and 2.7 mm lateral to the midline. The cannula was lowered until cerebrospinal fluid appeared inside the well of the cannula. Stainless steel screws and dental acrylic were used to anchor the cannula to the caluarium. Benzathine penicillin G (Bicillin, Wyeth Laboratories) was given post-operatively (150,000 units intramuscularly).
(§1) Experimental rabbits that were to be used in the antipyresis study were restrained in conventional holders and a thermistor probe (Yellow Springs International, No. 701) was inserted about 100 mm into the rectum and taped to the tail. In certain experiments, another thermistor probe (Yellow Springs International, No. 709) was attached to the dorsal surface of the ear. Temperature recordings were made every 10 minutes via a MINC 11 online computer connected to a digital temperature recorder (Datalogger, United Systems Corp.) At least 1 hour was allowed after the probes were inserted before injections were made, and all experiments were separated by at least 48 hours. Experiments were run in an environmental chamber at 23~C.
The average thermal response, the mean change in temperature (~C) over the duration of the response measured in hours, was calculated for each response and the paired t-test was used for statistical analysis of the data. The time period over which the experimental anti-pyretic temperature response was determined was generally set by the duration of the control response for the individual animal. The control response begins with the first deviation from baseline temperature and continues until the temperature returns to baseline or to the point nearest the baseline within 5 hours. The mean change in temperature for each 10 minute intervals during this time period are summed and divided by the total number of 10 minute periods. […]

normal body temperature = test: body temperature of afebrile rabbits; assay type: in vivo
Description: as §1
Injections of the tripeptide were given 30 minutes after the pyrogen, into the intraventricular cannula. […] Decreases in fever, calculated as percent reduction of the area under the control fever curve over the apparent duration of action of the peptide (1.5 hours), were 24%, 31%, and 48% for the 0.5, 1.0, and 2.0 milligram doses, respectively. Similarly, intravenous administration of 2, 20 and 200 milligrams of the tripeptide reduced fever 34, 27 and 67% , respectively, during the 1.5 hour period after injection of the leukocytic pyrogen. Control saline injections, centrally administered, caused no significant reduction in body temperature.

[2] = system: histamine-mediated increase in capillary permeability; test: skin-blueing test (Sparrow/Wilhelm assay), histamine-induced blue weals; assay type: in vivo, New Zealand white rabbits; settings: for relative intensity of histamine-induced blue weals, experimental (E) vs control (C): scored 30 minutes after histamine
Source text: This model relies on the principal that localized, subcutaneous injections of histamine will result in a localized increase in capillary permeability. When the test animal has been pretreated with blue dye intravenously, the localized histamine injections will elicit blue-colored "weals" around the injection site. Thus, by preadministration of an effective anti-inflammatory agent, the blue color of the histamine-induced weals will be much less pronounced, with the amount of color reduction being dependent on the relative amount and/or potency of the anti-inflammatory agent used.
Non-moulting New Zealand white rabbits were used for the sparrow/Wilhelm assay. The skin of the rabbits back was closely clipped 1-2 days previous to the experiment, but not dipilated, and the rabbits were kept warm until tested. Various amounts of the protected tripeptide (diacetyl-L-lys-l-Pro-L-Val-NH2) were injected intravenously into an ear vein approximately 15 minutes prior to intravenous injection of blue dye. Control rabbits received sham injections. Fifteen minutes following injection of the agent or sham, the rabbits received approximately 30 mg/kg of Pontamine blue dye as a 2.5% solution in 0.45% saline, into an exposed vein.
Immediately following dye injections, histamine was injected intradermally in a 0.10 ml volume (1.25 mg histamine 0.1 ml volume) at several sites on each side of the spine. In all, one vertical row of six injections were made on each side of the spine. The relative intensity of the resultant blue weals were scored by an independent observer 30 minutes after histamine injection.

[3] = system: carrageenan-induced swelling of rat paws; test: carrageenan/rat paw edema assay; assay type: in vivo, male Sprague-Dawley rats; settings: for overall reduction of carrageenan-induced swelling relative to hydrocortisone: approximately equal weights, intraperitoneal
Description: A second in vivo bioassay for anti-inflammatory activity was conducted in which the action of the tripeptide was compared to that of hydrocortisone. In this assay, the two agents were given at similar doses and tested for their independent ability to inhibit carrageenan-induced swelling of rats paws. This assay, the rat paw edema test, was conducted generally as it is typically performed in the art, for example, as described by Winter et al. (1962), Proc. Soc. Exp. Biol. Med., 111:544 or in U.S. Pat. No. 4,150,137.
Briefly, the assay was performed as follows. Each of twenty-four male Sprague-Dawley rats was assigned to one of four groups: tripeptide treatment and controls (matched according to body weight and initial paw volume), hydrocortisone treatment and matched controls. The volume of the right rear paw of the test and control animals was determined using standard procedures and a mercury displacement volumetric technique. An intraperitoneal injection of the tripeptide (Ac-Lys-Pro-Val-NH2, 100 mg/kg, N=6), of hydrocortisone (100 mg/kg, N=6), or saline (matched volume, N=12) was given to each rat. One hour later 0.5 ml of 1% lambda carrageenan in saline solution was injected into the right rear paw of the animals and the paw volume was again recorder (baseline measure). […] Thereafter paw volume was measured each hour for out hours. For comparison of the effects of the two treatments, paw volume of experimental animals measured at hourly intervals was expressed as a percentage of the volume change of their respective matched controls.

Molecule: CC(C)[C@H](NC(=O)[C@@H]1CCCN1C(=O)[C@@H](N)CCCCN)C(=O)O [L-Lys-L-Pro-L-val] (H-Lys-Pro-Val-OH)
- decrease in fever, percent reduction of the area under the control fever curve ([1]; 0.5 milligram dose): 24%
- decrease in fever, percent reduction of the area under the control fever curve ([1]; 1.0 milligram dose): 31%
- decrease in fever, percent reduction of the area under the control fever curve ([1]; 2.0 milligram dose): 48%
- duration of (antipyretic) action ([1]; central administration): 1.5 h
- fever reduction ([1]; intravenous 2 milligrams): 34%
- fever reduction ([1]; intravenous 20 milligrams): 27%
- fever reduction ([1]; intravenous 200 milligrams): 67%
- reduction in body temperature of afebrile rabbits (normal body temperature; injections of 200 milligrams): no reduction in body temperature

Molecule: diacetyl-L-Lysyl-L-Prolyl-L-Valyl-NH2 [protected tripeptide]
- relative intensity of histamine-induced blue weals, experimental (E) vs control (C) ([2]; 0.625 ug/kg body weight intravenously): No difference
- relative intensity of histamine-induced blue weals, experimental (E) vs control (C) ([2]; 1.25 ug/kg body weight intravenously): E lighter than C
- relative intensity of histamine-induced blue weals, experimental (E) vs control (C) ([2]; 5 ug/kg body weight intravenously): E lighter than C
- relative intensity of histamine-induced blue weals, experimental (E) vs control (C) ([2]; 10 ug/kg body weight intravenously): E lighter than C
- lowest intravenous dosage reducing histamine-mediated increase in capillary permeability ([2]; intravenous): 1.25 ug/kg body weight
- lowest dosage eliciting a demonstrable reduction in histamine-mediated vascular permeability to vital dyes ([2]; rabbit, in vivo): about 1 microgram/kilogram
- inhibition of paw edema compared with hydrocortisone ([3]; 100 mg/kg intraperitoneal each, 1 h before carrageenan, hours after the first hour, p>0.20): no significant difference
- overall reduction of carrageenan-induced swelling relative to hydrocortisone ([3]; listed as diacetyl-Lys-Pro-Val-NH2): roughly equivalent
- overall reduction of carrageenan-induced swelling relative to hydrocortisone ([3]; listed as protected Lys-Pro-Val tripeptide): commensurate with hydrocortisone
- reduction of fever induced by intravenous leukocytic pyrogen ([1]; 0.5 mg, central administration): more than 50%
- antipyretic potency relative to the unprotected tripeptide ([1]; central administration): at least four
- duration of (antipyretic) action ([1]; central administration): at least four
- activity relative to the unprotected species on a weight basis ([1]; rabbit pyresis assay, summary statement): approximately twice

Molecule: C[C@]12CCC(=O)C=C1CC[C@@H]1[C@@H]2[C@@H](O)C[C@@]2(C)[C@H]1CC[C@]2(O)C(=O)CO [hydrocortisone, reference compound]
- inhibition of paw swelling in the first hour ([3]; 100 mg/kg intraperitoneal, first hour after carrageenan, p<0.05 Mann-Whitney vs tripeptide): markedly inhibited swelling

Molecule: [Cl][Cu][Cl] [copper ions, cupric chloride]
- effect of copper ions alone on normal temperature (normal body temperature; doses used to enhance the protected peptide): no effect on normal temperature

From US5157023A, “Antipyretic and anti-inflammatory lys pro val compositions and method of use” (priority 1991, dated 1992)
